The EC50 is the concentration needed to bring the measured effect to its halfway point.

Where two headings read alike, the source gives them in different places.

Data on one compound can be found in PMC12654037, “Norditerpene Natural Products from Subterranean Fungi with Anti-Parasitic Activity” (Microorganisms, 2025).

One series concerns HepG2 human hepatocytes. Nature of the series: HepG2 cytotoxicity assay (MTS). The series is classed as cell-based. The note with it: 48 h, mean +/- SD. The protocol:
HepG2 cytotoxicity assay: Mammalian cell cytotoxicity was assessed in HepG2 human hepatocytes using an MTS 3-(4,5-dimethylthiazol-2-yl)-5-(3-carboxymethoxyphenyl)-2-(4-sulfophenyl)-2H-tetrazolium)-based cytotoxicity assay. For cytotoxicity testing, ∼2250 cells were seeded into each well of a 384-well microtiter plate and incubated for 24 h. Serial dilutions of the compounds were added in triplicate starting at 25 μM. Cells were further incubated for an additional 48 h at 37 °C in an atmosphere containing 5% CO2. Zero-growth control wells were incubated with 5% Triton X-100 for 5 min prior to MTS addition. Following the addition of MTS to all wells, the plates were incubated for an additional 4 h under the same environmental conditions before taking absorbance measurements. Absorbance values were recorded at 490 nm using a Synergy Neo2 multimode reader (BioTek), and values were normalized based on Triton X-100-lysed and no treatment controls. Samples were run in triplicate in each assay, and the experiments were repeated three times.

A further series concerns HFF cells. Nature of the series: HFF cytotoxicity assay. The series is classed as cell-based. On the procedure:
(§1) HCT-8 and HFF cytotoxicity assays: Cytotoxicity of the compounds was determined against both confluent (the conditions of the infection assays) and growing HCT-8 and HFF host cells, as previously described. Cells were seeded into white-sided, clear-bottom 96-well plates and grown to either 40% or 100% confluency. Compounds were added to cells at various concentrations up to 100 µM in a final DMSO concentration of 0.5%. DMSO was run in parallel as a vehicle control. After 48 h, the viability of the cells was determined by either quantification of cellular ATP (Cell-Titer Glo cell viability assay; Promega, Madison WI, USA) or by MTT assay. Viability was determined 24 h after compound addition to HFF cells or 48 h after compound addition to HCT-8 cells or HepG2 cells. The percent cell growth was then calculated with the following formula: % Cell Growth = [RLUcompound/RLUDMSO] × 100. Samples were run in triplicate with two to three biological replicates.

Series [1] concerns G. lamblia WBC6 and CBG99 trophozoites. Nature of the series: Giardia lamblia trophozoite growth inhibition assay. The note with it: 72 h. The series is classed as cell-based. On the procedure:
Compound inhibition assay against Giardia lamblia WBC6 and CBG99 trophozoites: Biological replicates of growth inhibition assays were performed using wild-type G. lamblia WBC6 and G. lamblia CBG99 trophozoites at 37 °C under reduced oxygen conditions in a sealed 0.5 mL airtight sterile tube (USA Scientific, Ocala, FL, USA), following the susceptibility assay described below. G. lamblia trophozoites were grown in TYI-S-33 medium supplemented with 10% bovine serum and 0.05 mg/mL bovine bile, as previously described. A 3-fold serial concentration of pure compounds starting at 29 µM was screened against 75,000 cells/mL of parasites in modified TYI-S-33 medium with a final dimethyl sulfoxide (DMSO) concentration of 0.14%. Metronidazole was run in parallel at a final highest concentration of 66.7 µM and 3-fold subsequent serial dilutions. The untreated negative control contained 0.14% of DMSO. Sealable test tubes filled to its maximum volume of 700 µL were used to perform this assay. The test tubes were incubated at 37 °C for 72 h. After incubation, the tubes were chilled on ice, and the reaction was transferred to 96-well plates. In the plate, 50 µL of an ATP binding luminescence marker, CellTiter-Glo (Promega, Madison, WI, USA) or 10 µL of 2.5 mg/mL d-luciferin (GoldBio, St Louis, MO, USA) was added to each well and allowed to develop at room temperature for 10 min [31, 36]. The assay was read and analyzed using an EnVision Plate Reader (Perkin Elmer, Waltham, MA, USA). Response curves and EC50 values (the concentration at which 50% of G. lamblia trophozoite growth was inhibited) were calculated using GraphPad Prism (GraphPad, LaJolla, CA, USA).

In the next series the test system is P. falciparum 3D7. The series is described as follows: Plasmodium falciparum growth inhibition assay (SYBR Green I), 3D7. The following applies: 3D7, 72 h, read-out: EC50 3D7(M).
Another series in a line: HCT-8 cytotoxicity assay. The series is classed as cell-based. The following applies: human; sub-confluent (~40% confluency); read-out: EC50 cytotoxicity against sub-confluent HCT-8 cells. On the procedure: as §1
The next series has as its system HCT-8 cells. Nature of the series: HCT-8 cytotoxicity assay. The series is classed as cell-based. On the procedure: as §1
The next series relates to C. parvum. Nature of the series: C. parvum growth inhibition assay (Cp-NLuc-infected HCT-8 cells). The series is classed as cell-based, Cryptosporidium parvum. The following applies: for EC50: Cryptosporidium parvum. On the procedure:
C. parvum growth inhibition assays: The in vitro growth inhibition assay of C. parvum has been previously described. Briefly, clear-bottom, white-sided 96 well plates were seeded with HCT-8 cells. Once the cells reached between 50% and 75% confluency, they were infected with Cp-NLuc oocysts (10,000/well) in complete media containing 0.6% taurocholate. At 24 h post-infection (hpi), the infected cells were treated with compounds at various concentrations. DMSO was used as a vehicle control in parallel. Parasite growth was determined at 72 hpi by measuring relative luminescence units (RLUs) using Promega Nano-Glo substrate (Promega, Madison, WI, USA) and a SpectraMax® L Microplate Reader (Molecular Devices, San Jose, CA, USA). The percent inhibition of parasite growth was calculated as [(RLUDMSO − RLUcompound)/RLUDMSO] × 100.

In another series the test system is P. falciparum line Dd2. The series is described as follows: Plasmodium falciparum growth inhibition assay (SYBR Green I), Dd2.
A further series has as its system HuF fibroblast cell line. The following applies: cited from earlier work.
Another series deals with T. gondii. The series is described as follows: T. gondii growth inhibition assay (TgRH-Luc:GFP-infected HFF cells). The series is classed as cell-based. The note with it: Toxoplasma gondii, 10 µM to 156 nM, Figure 2E. On the procedure:
T. gondii growth inhibition assays: The T. gondii inhibition assay was described previously. Briefly, HFF cells were seeded onto white-sided, clear-bottom 96 well plates, grown to confluence, and then 5000 TgRH-Luc:GFP parasites were added to each well. At 24 hpi, compounds or DMSO were added. The growth of the parasites was determined by relative luminescence at 48 hpi using Promega Bright-Glo (Promega, Madison, WI, USA) substrate. Plates were read, and the percent inhibition of parasite growth was calculated as described above. Determination of -static versus -cidal activity was conducted as indicated above, with parasite growth quantified after 48 h of infection. Each sample was run in triplicate, and each experiment was repeated three times.

Method for P. falciparum 3D7: (§2) Plasmodium falciparum growth inhibition assay: Antiplasmodial EC50 results were determined using a fluorescence-based SYBR Green I assay performed using asynchronous cultures [30, 35]. […] Plates were subsequently frozen at −80 °C to facilitate lysis. […] Relative fluorescence units (RFUs) were normalized based on chloroquine-treated and no treatment controls. Serial dilutions of compounds were prepared in RPMI with final assay conditions of ≤0.2% DMSO. Each assay was conducted in triplicate with three biological replicates.
Method for P. falciparum line Dd2: as §2

Turning to `CO[C@H]1OC(=O)C=C2C1=C[C@H]1OC(=O)[C@@]3(C)CCC[C@@]2(C)[C@@H]13` [compound 7, oidiolactone B], the TC50 HepG2 with HepG2 human hepatocytes was 10300 ± 2180 nM. The “TC50 HFF (confluent)” value with HFF cells (confluent) was greater than 30000 nM. The “toxicity to host cells (no toxicity up to)” value is greater than 100 µM with HFF cells (confluent HFF, conditions of the infection assay, 24 h, cellular ATP) and greater than 100 µM in the series on HCT-8 cells (confluent HCT-8, conditions of the infection assay, 48 h, cellular ATP). The “cytotoxicity against sub-confluent HFF” value with HFF cells (sub-confluent) was “no cytotoxicity observed”. In series [1], the “activity against G. lamblia (no activity up to)” value is listed as greater than 29 µM. Also, the EC50 in the series on P. falciparum 3D7 is 1.22e-06 ± 4.19e-07 M; with C. parvum (HCT-8, abstract, read-out: EC50 against C. parvum), 240 nM; in the series on C. parvum (Cp-NLuc-infected HCT-8 cells, 7.5 µM to 117 nM, Figure 2E, read-out: C. parvum EC50), 238 nM; in the series on P. falciparum line Dd2 (Plasmodium falciparum, DD2, 72 h, read-out: EC50 Dd2 (M)), 9.83e-07 ± 1.11e-07 M; in the series on T. gondii, 580 nM. Moreover, in the series “HCT-8 cytotoxicity assay”, the EC50 at 48 h is 2100 nM. In addition, the “TC50 HCT-8 (confluent)” value with HCT-8 cells (confluent) was greater than 30000 nM. Moreover, the “more cytotoxic towards host HCT-8 cells versus oidiolactone A” value in the series on HCT-8 cells (non-confluent conditions) is listed as ~ 15 x. Also, the “TC50 HCT-8 (sub-confluent)” value in the series on HCT-8 cells (sub-confluent) turned out to be 2100 ± 300 nM. The “increase in inhibitory activity against C. parvum versus oidiolactone A” value with C. parvum (7,8 double bond vs. 7α,8α-epoxy group) was 2 fold. In addition, the “SI: selectivity index=EC50 HepG2/ EC50 compound” value in the series with P. falciparum line Dd2 was 11. Besides, in the series on HuF fibroblast cell line, the “cytotoxicity against human fibroblast” value is “no cytotoxicity observed”. Moreover, the “TC50 HuF (sub-confluent)” value with HuF fibroblast cell line (sub-confluent, ref Rusman et al. 2020 [25]) is 21400 ± 900 nM.
